target: T1, Cannabinoid-1 receptor (CB1R) (Rattus norvegicus, UniProt P20272); assay: Cannabinoid-1 receptor (CB1R) binding affinity assay ([3H]CP-55940, rat CB-1 receptor binding protocol); details: IC50(nM), brain tissue of SD rats, [3H]CP-55940, 30° C. 60 min
T1 construct: The tissue obtained from the brain of SD rats was homogenized; from tissue; host or cells: brain of SD rats (membrane pellet of the homogenate)
T1 sequence (P20272 whole entry): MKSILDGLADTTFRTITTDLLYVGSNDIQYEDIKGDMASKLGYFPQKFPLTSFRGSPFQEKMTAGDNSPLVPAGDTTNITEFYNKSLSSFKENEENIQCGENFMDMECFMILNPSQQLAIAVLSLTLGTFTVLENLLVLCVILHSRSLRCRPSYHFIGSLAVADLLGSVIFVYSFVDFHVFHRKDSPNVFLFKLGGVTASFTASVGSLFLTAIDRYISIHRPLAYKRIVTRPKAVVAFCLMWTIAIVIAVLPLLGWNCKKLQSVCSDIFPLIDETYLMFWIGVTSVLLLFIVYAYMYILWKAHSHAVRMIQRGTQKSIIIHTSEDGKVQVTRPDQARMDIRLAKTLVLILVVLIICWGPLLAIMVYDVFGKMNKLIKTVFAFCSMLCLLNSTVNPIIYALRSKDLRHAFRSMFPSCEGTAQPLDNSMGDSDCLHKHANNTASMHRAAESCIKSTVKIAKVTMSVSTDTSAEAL

Question: How did the IC50 turn out when `CCc1c(-c2nnc(C3(c4ccc(Cl)cc4)CCC3)s2)nn(-c2ccc(Cl)cc2Cl)c1-c1ccc(Cl)cc1` [Example 483, 2-(5-(4-chlorophenyl)-1-(2,4-dichlorophenyl)-4-ethyl-1H-pyrazol-3-yl)-5-(1-(4-chlorophenyl)cyclobutyl)-1,3,4-thiadiazole] was run?
Answer: 2.32 nM

same assay, conditions: brain tissue of SD rats, [3H]CP-55940, 30° C. 60 min; read-out: IC50

Question: `Cc1c(-c2nnc(C3(Cc4ccc(Cl)cc4)CC3)s2)nn(-c2ccc(Cl)cc2Cl)c1-c1ccc(Cl)cc1` [Example 471, 2-(1-(4-chlorobenzyl)cyclopropyl)-5-(5-(4-chlorophenyl)-1-(2,4-dichlorophenyl)-4-methyl-1H-pyrazol-3-yl)-1,3,4-thiadiazole] was tested. Which IC50 did it give?
Answer: 27.2 nM

Question: How did the IC50 turn out when `CCc1c(-c2nnc(C3(Cc4ccc(Cl)cc4)CC3)s2)nn(-c2ccc(Cl)cc2Cl)c1-c1ccc(Br)cc1` [Example 472, 2-(1-(4-chlorobenzyl)cyclopropyl)-5-(5-(4-bromophenyl)-1-(2,4-dichlorophenyl)-4-ethyl-1H-pyrazol-3-yl)-1,3,4-thiadiazole] was run?
Answer: 6.66 nM

Question: Which IC50 does the source give for `CCc1c(-c2nnc(C3(c4ccc(OC)cc4)CC3)s2)nn(-c2ccc(Cl)cc2Cl)c1-c1ccc(Br)cc1` [Example 473, 2-(5-(4-bromophenyl)-1-(2,4-dichlorophenyl)-4-ethyl-1H-pyrazol-3-yl)-5-(1-(4-methoxyphenyl)cyclopropyl)-1,3,4-thiadiazole] here?
Answer: 4.53 nM

Question: For `CCc1c(-c2nnc(C3(c4ccc(C)cc4)CC3)s2)nn(-c2ccc(Cl)cc2Cl)c1-c1ccc(Br)cc1` [Example 474, 2-(5-(4-bromophenyl)-1-(2,4-dichlorophenyl)-4-ethyl-1H-pyrazol-3-yl)-5-(1-p-tolylcyclopropyl)-1,3,4-thiadiazole], which IC50 is on record?
Answer: 18.8 nM

Question: With `CCc1c(-c2nnc(C3(c4ccccc4)CC3)s2)nn(-c2ccc(Cl)cc2Cl)c1-c1ccc(Br)cc1` [Example 475, 2-(5-(4-bromophenyl)-1-(2,4-dichlorophenyl)-4-ethyl-1H-pyrazol-3-yl)-5-(1-phenylcyclopropyl)-1,3,4-thiadiazole] as the compound, how does the IC50 read?
Answer: 8.75 nM

Question: For `CCc1c(-c2nnc(C3(c4ccc(Cl)cc4)CC3)s2)nn(-c2ccc(Cl)cc2Cl)c1-c1ccc(Br)cc1` [Example 477, 2-(5-(4-bromophenyl)-1-(2,4-dichlorophenyl)-4-ethyl-1H-pyrazol-3-yl)-5-(1-(4-chlorophenyl)cyclopropyl)-1,3,4-thiadiazole], which IC50 is on record?
Answer: 4.1 nM

Question: For `CCc1c(-c2nnc(C3(c4ccc(Cl)cc4Cl)CC3)s2)nn(-c2ccc(Cl)cc2Cl)c1-c1ccc(Br)cc1` [Example 478, 2-(5-(4-bromophenyl)-1-(2,4-dichlorophenyl)-4-ethyl-1H-pyrazol-3-yl)-5-(1-(2,4-dichlorophenyl)cyclopropyl)-1,3,4-thiadiazole], which IC50 is on record?
Answer: 6.49 nM

Question: For `CCc1c(-c2nnc(C3(c4ccccc4)CC3)s2)nn(-c2ccc(Cl)cc2Cl)c1-c1ccc(Cl)cc1` [Example 479, 2-(5-(4-chlorophenyl)-1-(2,4-dichlorophenyl)-4-ethyl-1H-pyrazol-3-yl)-5-(1-phenylcyclopropyl)-1,3,4-thiadiazole], which IC50 is on record?
Answer: 6.56 nM

Question: How did the IC50 turn out when `CCc1c(-c2nnc(C3(c4ccc(C)cc4)CC3)s2)nn(-c2ccc(Cl)cc2Cl)c1-c1ccc(Cl)cc1` [Example 480, 2-(5-(4-chlorophenyl)-1-(2,4-dichlorophenyl)-4-ethyl-1H-pyrazol-3-yl)-5-(1-p-tolylcyclopropyl)-1,3,4-thiadiazole] was run?
Answer: 5.08 nM

Question: With `CCc1c(-c2nnc(C3(c4ccc(OC)cc4)CC3)s2)nn(-c2ccc(Cl)cc2Cl)c1-c1ccc(Cl)cc1` [Example 481, 2-(5-(4-chlorophenyl)-1-(2,4-dichlorophenyl)-4-ethyl-1H-pyrazol-3-yl)-5-(1-(4-methoxyphenyl)cyclopropyl)-1,3,4-thiadiazole] as the compound, how does the IC50 read?
Answer: 7.6 nM

Question: With `CCc1c(-c2nnc(C3(c4ccc(Cl)cc4Cl)CC3)s2)nn(-c2ccc(Cl)cc2Cl)c1-c1ccc(Cl)cc1` [Example 482, 2-(5-(4-chlorophenyl)-1-(2,4-dichlorophenyl)-4-ethyl-1H-pyrazol-3-yl)-5-(1-(2,4-dichlorophenyl)cyclopropyl)-1,3,4-thiadiazole] as the compound, how does the IC50 read?
Answer: 3.94 nM

Question: `CCc1c(-c2nnc(C3(C)CC3)s2)nn(-c2ccc(Cl)cc2Cl)c1-c1ccc(Cl)cc1` [Example 484, 2-(5-(4-chlorophenyl)-1-(2,4-dichlorophenyl)-4-ethyl-1H-pyrazol-3-yl)-5-(1-methylcyclopropyl)-1,3,4-thiadiazole] was tested. Which IC50 did it give?
Answer: 31.5 nM

Question: For `CCc1c(-c2nnc(C3(c4ccccc4)CCCC3)s2)nn(-c2ccc(Cl)cc2Cl)c1-c1ccc(Br)cc1` [Example 485, 2-(5-(4-bromophenyl)-1-(2,4-dichlorophenyl)-4-ethyl-1H-pyrazol-3-yl)-5-(1-phenylcyclopentyl)-1,3,4-thiadiazole], which IC50 is on record?
Answer: 32.8 nM

Question: How did the IC50 turn out when `CCc1c(-c2nnc(C3(c4ccc(Cl)cc4)CCCC3)s2)nn(-c2ccc(Cl)cc2Cl)c1-c1ccc(Br)cc1` [Example 486, 2-(5-(4-bromophenyl)-1-(2,4-dichlorophenyl)-4-ethyl-1H-pyrazol-3-yl)-5-(1-(4-chlorophenyl)cyclopentyl)-1,3,4-thiadiazole] was run?
Answer: 23 nM

Question: With `Cc1c(-c2nnc(C3(c4ccccc4)CC3)s2)nn(-c2ccc(Cl)cc2Cl)c1-c1ccc(Cl)cc1` [Example 487, 2-(5-(4-chlorophenyl)-1-(2,4-dichlorophenyl)-4-methyl-1H-pyrazol-3-yl)-5-(1-phenylcyclopropyl)-1,3,4-thiadiazole] as the compound, how does the IC50 read?
Answer: 9.6 nM

Question: How did the IC50 turn out when `CCC1(c2nnc(-c3nn(-c4ccc(Cl)cc4Cl)c(-c4ccc(Cl)cc4)c3C)s2)CC1` [Example 488, 2-(5-(4-chlorophenyl)-1-(2,4-dichlorophenyl)-4-methyl-1H-pyrazol-3-yl)-5-(1-ethylcyclopropyl)-1,3,4-thiadiazole] was run?
Answer: 106 nM

Question: For `CCc1c(-c2nnc(C3(CC)CC3)s2)nn(-c2ccc(Cl)cc2Cl)c1-c1ccc(Cl)cc1` [Example 489, 2-(5-(4-chlorophenyl)-1-(2,4-dichlorophenyl)-4-ethyl-1H-pyrazol-3-yl)-5-(1-ethylcyclopropyl)-1,3,4-thiadiazole], which IC50 is on record?
Answer: 19.8 nM

Question: How did the IC50 turn out when `CCc1c(-c2nnc(C3(CC)CC3)s2)nn(-c2ccc(Cl)cc2Cl)c1-c1ccc(Br)cc1` [Example 490, 2-(5-(4-bromophenyl)-1-(2,4-dichlorophenyl)-4-ethyl-1H-pyrazol-3-yl)-5-(1-ethylcyclopropyl)-1,3,4-thiadiazole] was run?
Answer: 19.8 nM

Question: For `CCc1c(-c2nnc(C3(C#N)CC3)s2)nn(-c2ccc(Cl)cc2Cl)c1-c1ccc(Cl)cc1` [Example 491, 1-(5-(5-(4-chlorophenyl)-1-(2,4-dichlorophenyl)-4-ethyl-1H-pyrazol-3-yl)-1,3,4-thiadiazol-2-yl)cyclopropanecarbonitrile], which IC50 is on record?
Answer: 143 nM

Question: With `CCc1c(-c2nnc(C3(c4ccc(F)cc4)CC3)s2)nn(-c2ccc(Cl)cc2Cl)c1-c1ccc(Br)cc1` [Example 492, 2-(5-(4-bromophenyl)-1-(2,4-dichlorophenyl)-4-ethyl-1H-pyrazol-3-yl)-5-(1-(4-fluorophenyl)cyclopropyl)-1,3,4-thiadiazole] as the compound, how does the IC50 read?
Answer: 2.24 nM

Question: For `CCc1c(-c2nnc(C3(c4cccc(Cl)c4)CC3)s2)nn(-c2ccc(Cl)cc2Cl)c1-c1ccc(Cl)cc1` [Example 494, 2-(5-(4-chlorophenyl)-1-(2,4-dichlorophenyl)-4-ethyl-1H-pyrazol-3-yl)-5-(1-(3-chlorophenyl)cyclopropyl)-1,3,4-thiadiazole], which IC50 is on record?
Answer: 6.43 nM
